Results: PubChem BioAssay (NCI)
“And” between values parts separate entries of the source, which are not always exact repeats. Equal entries are not always repeated.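 Method: 48-hour compound exposure of cells in 96-well plates, five concentrations, linear interpolation of endpoints. GI50 = concentration required for 50% inhibition of growth. TGI denotes the concentration required for complete inhibition of growth.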

What was measured:
Test in all cases: growth of human tumour cells (NCI), 48 h
A549 NSCLC = test system: A549 NSCLC
CCRF-CEM leukemia = test system: CCRF-CEM leukemia
EKVX NSCLC = test system: EKVX NSCLC
HCC-2998 colon = test system: HCC-2998 colon
IGROV1 ovarian = test system: IGROV1 ovarian
LOX IMVI melanoma = test system: LOX IMVI melanoma
M14 melanoma = test system: M14 melanoma
OVCAR-5 ovarian = test system: OVCAR-5 ovarian
SF-268 CNS = test system: SF-268 CNS
SK-MEL-2 melanoma = test system: SK-MEL-2 melanoma
SK-MEL-28 melanoma = test system: SK-MEL-28 melanoma
SK-MEL-5 melanoma = test system: SK-MEL-5 melanoma
SNB-19 CNS = test system: SNB-19 CNS
UO-31 renal = test system: UO-31 renal

SMILES | TGI (A549 NSCLC) | TGI (CCRF-CEM leukemia) | TGI (EKVX NSCLC) | TGI (HCC-2998 colon) | TGI (IGROV1 ovarian) | TGI (LOX IMVI melanoma) | TGI (M14 melanoma) [µM] | TGI (OVCAR-5 ovarian) | TGI (SF-268 CNS) | TGI (SK-MEL-2 melanoma) | TGI (SK-MEL-28 melanoma) [µM] | TGI (SK-MEL-5 melanoma) | TGI (SNB-19 CNS) [µM] | TGI (UO-31 renal) | GI50 (A549 NSCLC) | GI50 (CCRF-CEM leukemia) | GI50 (SF-268 CNS) | GI50 (SK-MEL-5 melanoma) | GI50 (EKVX NSCLC) [µM] | GI50 (SK-MEL-2 melanoma) [µM]
CC(=O)OC/C=C\Cn1nc(Br)c(=O)[nH]c1=O | 32.3 µM | 24.5 µM | 34.5 µM | 31.7 µM | 29.4 µM | 20.1 µM | 30.9 | 31.8 µM | 31.5 µM | 30.6 µM | 32 | 30.9 µM | 37.7 | 31.2 µM | – | – | – | – | – | –
CNC(=O)SCC(N)C(=O)O (stereo unspecified) | > 100 µM | > 100 µM | > 100 µM | > 100 µM | > 100 µM | > 89.3 µM | – | > 100 µM | > 100 µM | > 100 µM | > 100 | > 100 µM | > 100 | > 100 µM | – | – | – | – | – | –
CC(=O)NC(c1nc2cc(C)c(C)cc2[nH]1)c1nc2cc(C)c(C)cc2[nH]1 | 65.2 µM | 37 µM | 84.8 µM | 34.6 µM | 58.9 µM | 59.1 µM | > 100 | > 100 µM | > 100 µM | > 100 µM | 53.4 | 32 µM | > 100 | 53.2 µM | – | – | – | – | – | –
CC1CCC2(C(=O)O)CCC3(C)C(=CCC4C5(C)CCC(O)C(C)(C)C5CCC43C)C2C1C (stereo unspecified) | 21.4 µM and > 100 µM | 27.9 µM and > 100 µM | 23.2 µM and 28.6 µM | 21.8 µM and 23 µM | 26.9 µM and 33.2 µM | 17.2 µM and > 100 µM | 4.28 | 19.6 µM and 23.2 µM | 17.7 µM and 24.6 µM | 19 µM and 30.2 µM | – | 50.8 µM and 23.8 µM | 17.9 | 16.6 µM and 14.5 µM | 10.1 µM and 26.4 µM | 3.59 µM and 16.6 µM | 1.29 µM and 10.7 µM | 26.4 µM and 11.3 µM | – | –
OC1CCOc2ccccc21 (stereo unspecified) | > 100 µM | > 100 µM | > 100 µM | > 100 µM | > 100 µM | > 100 µM | > 100 | > 100 µM | > 100 µM | > 100 µM | > 100 | > 100 µM | > 100 | > 100 µM | – | – | – | – | – | –
CCC(=O)c1ccc2[nH]c3c(C)c4c(=O)cc(C)[nH]c4c(C)c3c2c1 | > 100 µM | > 100 µM | > 100 µM | > 100 µM | > 100 µM | > 100 µM | > 100 | > 100 µM | > 100 µM | > 100 µM | > 100 | > 100 µM | > 100 | > 100 µM | – | – | – | – | – | –
Cc1[nH]nc(N)c1C(N)=O | > 100 µM | > 100 µM | > 100 µM | > 100 µM | > 100 µM | > 100 µM | > 100 | > 100 µM | > 100 µM | > 100 µM | > 100 | > 100 µM | > 100 | > 100 µM | – | – | – | – | – | –
COc1cccc(/C=N/[N-]C(N)=O)c1[O-].[Ni+2].[OH3+].c1ccc(-c2ccccn2)nc1 | > 100 µM | > 100 µM | > 100 µM | > 100 µM | > 100 µM | > 100 µM | > 100 | > 100 µM | > 100 µM | > 100 µM | > 100 | > 100 µM | – | > 100 µM | – | – | – | – | – | –
CCOC(=O)c1c(Cl)nc2ccccc2c1N=[N+]=[N-] | > 100 µM | > 100 µM | > 100 µM | > 100 µM | 46.9 µM | 39.3 µM | 34.1 | 41.1 µM | 30.5 µM | 71.5 µM | > 100 | > 100 µM | > 100 | 36.5 µM | – | – | – | – | – | –
S=C1CC(c2ccccc2)Sc2ccccc2N1 (stereo unspecified) | – | > 100 µM | > 100 µM | – | > 100 µM | > 100 µM | > 100 | > 100 µM | > 100 µM | – | > 100 | > 100 µM | > 100 | > 100 µM | – | – | – | – | – | –
COc1cc(OC)c(/C=C\c2cc(/C=C/c3c(OC)cc(OC)cc3OC)c3ccccc3[n+]2C)c(OC)c1 | > 41.7 µM | – | 11.4 µM | 14.5 µM | 38.3 µM | 18.3 µM | 12.7 | 57 µM | 10.5 µM | – | 10.9 | 2 µM | 40 | > 55.4 µM | – | – | – | – | – | –
C/C=C/C1=CC(=O)C(O)C1O (stereo unspecified) | 107 µM | 103 µM | 148 µM | 82.5 µM | 141 µM | 83 µM | – | 130 µM | 91.2 µM | 133 µM | 97.9 | 79.8 µM | 124 | 106 µM | – | – | – | – | – | –
NC(=O)CCC(N=C(N)c1csc(C2OC(CO)C(O)C2O)n1)C(=O)O (stereo unspecified) | > 100 µM | > 100 µM | > 100 µM | > 100 µM | > 100 µM | > 100 µM | > 100 | > 100 µM | > 100 µM | > 100 µM | > 100 | > 100 µM | – | – | – | – | – | – | – | –
O=C(N/N=C/c1cc(Cl)cc(Cl)c1[O-])c1ccccc1O.O=C(N/N=C/c1cc(Cl)cc(Cl)c1[O-])c1ccccc1O.[Zn+2] | 13.1 µM | – | 9.88 µM | 13.2 µM | 6.82 µM | 14.6 µM | 6.88 | 14.6 µM | 17.7 µM | 11.5 µM | 14.8 | 2.94 µM | 15 | 10.6 µM | 0.527 µM | – | – | – | 0.68 | 0.591
